From ChEMBL document CHEMBL4138123, “Design, synthesis and biological evaluation of novel pyrazolochalcones as potential modulators of PI3K/Akt/mTOR pathway and inducers of apoptosis in breast cancer cells” (Eur J Med Chem, 2017)

Assays:
Type in all cases: functional
SN12C [1] = assay: Cytotoxicity against human SN12C cells assessed as cell growth at 10 uM after 48 hrs by sulforhodamine B assay relative to control; conditions: read-out: Activity
SW-620 [2] = assay: Cytotoxicity against human SW620 cells assessed as cell growth at 10 uM after 48 hrs by sulforhodamine B assay relative to control; conditions: SW-620, 48 h, read-out: Activity
UACC-257 [3] = assay: Cytotoxicity against human UACC257 cells assessed as cell growth at 100 uM after 48 hrs by sulforhodamine B assay relative to control; conditions: UACC-257, 48 h, read-out: Activity
BT-549 = assay: Cytotoxicity against human BT549 cells assessed as cell growth at 1 uM after 48 hrs by sulforhodamine B assay relative to control; conditions: BT-549, 48 h, read-out: Activity
UO-31 = assay: Cytotoxicity against human UO31 cells assessed as cell growth at 10 uM after 48 hrs by sulforhodamine B assay relative to control; conditions: UO-31, 48 h, read-out: Activity
MDA-MB-435 [4] = assay: Cytotoxicity against human MDA-MB-435 cells assessed as growth inhibition after 48 hrs by sulforhodamine B assay; conditions: MDA-MB-435, 48 h
RPMI-8226 = assay: Cytotoxicity against human RPMI8226 cells assessed as cell growth at 0.01 uM after 48 hrs by sulforhodamine B assay relative to control; conditions: RPMI-8226, 48 h, read-out: Activity
T47D = assay: Cytotoxicity against human T47D cells assessed as cell growth at 100 uM after 48 hrs by sulforhodamine B assay relative to control; conditions: read-out: Activity
DU-145 = assay: Cytotoxicity against human DU145 cells assessed as cell growth at 0.01 uM after 48 hrs by sulforhodamine B assay relative to control; conditions: DU-145, 48 h, read-out: Activity
SK-MEL-5 [5] = assay: Cytotoxicity against human SK-MEL-5 cells assessed as cell growth at 0.01 uM after 48 hrs by sulforhodamine B assay relative to control; conditions: SK-MEL-5, 48 h, read-out: Activity
MCF7 = assay: Cytotoxicity against human MCF7 cells assessed as cell growth at 100 uM after 48 hrs by sulforhodamine B assay relative to control; conditions: MCF7, 48 h, read-out: Activity
SNB-19 = assay: Cytotoxicity against human SNB19 cells assessed as cell growth at 0.01 uM after 48 hrs by sulforhodamine B assay relative to control; conditions: SNB-19, 48 h, read-out: Activity
COLO 205 [6] = assay: Cytotoxicity against human COLO205 cells assessed as cell growth at 10 uM after 48 hrs by sulforhodamine B assay relative to control; conditions: COLO 205, 48 h, read-out: Activity
HCT-15 = assay: Cytotoxicity against human HCT15 cells assessed as cell growth at 0.1 uM after 48 hrs by sulforhodamine B assay relative to control; conditions: HCT-15, 48 h, read-out: Activity
ACHN = assay: Cytotoxicity against human ACHN cells assessed as cell growth at 0.1 uM after 48 hrs by sulforhodamine B assay relative to control; conditions: read-out: Activity
NCI-H322M = assay: Cytotoxicity against human NCI-H322M cells assessed as cell growth at 0.1 uM after 48 hrs by sulforhodamine B assay relative to control; conditions: read-out: Activity
NCI-H522 [7] = assay: Cytotoxicity against human NCI-H522 cells assessed as cell growth at 10 uM after 48 hrs by sulforhodamine B assay relative to control; conditions: NCI-H522, 48 h, read-out: Activity
HOP-62 = assay: Cytotoxicity against human HOP62 cells assessed as cell growth at 10 uM after 48 hrs by sulforhodamine B assay relative to control; conditions: HOP-62, 48 h, read-out: Activity
SW-620 [8] = assay: Cytotoxicity against human SW620 cells assessed as cell growth at 0.1 uM after 48 hrs by sulforhodamine B assay relative to control; conditions: SW-620, 48 h, read-out: Activity
A498 [9] = assay: Cytotoxicity against human A498 cells assessed as cell growth at 10 uM after 48 hrs by sulforhodamine B assay relative to control; conditions: A498, 48 h, read-out: Activity
SK-OV-3 = assay: Cytotoxicity against human SKOV3 cells assessed as cell growth at 0.01 uM after 48 hrs by sulforhodamine B assay relative to control; conditions: SK-OV-3, 48 h, read-out: Activity
COLO 205 [10] = assay: Cytotoxicity against human COLO205 cells assessed as cell growth at 1 uM after 48 hrs by sulforhodamine B assay relative to control; conditions: COLO 205, 48 h, read-out: Activity
UACC-257 [11] = assay: Cytotoxicity against human UACC257 cells assessed as cell growth at 1 uM after 48 hrs by sulforhodamine B assay relative to control; conditions: UACC-257, 48 h, read-out: Activity
IGROV-1 = assay: Cytotoxicity against human IGROV1 cells assessed as growth inhibition after 48 hrs by sulforhodamine B assay; conditions: IGROV-1, 48 h
A549 = assay: Cytotoxicity against human A549/ATCC cells assessed as cell growth at 100 uM after 48 hrs by sulforhodamine B assay relative to control; conditions: A549, 48 h, read-out: Activity
HCC 2998 = assay: Cytotoxicity against human HCC2998 cells assessed as cell growth at 1 uM after 48 hrs by sulforhodamine B assay relative to control; conditions: HCC 2998, 48 h, read-out: Activity
NCI-H460 = assay: Cytotoxicity against human NCI-H460 cells assessed as cell growth at 1 uM after 48 hrs by sulforhodamine B assay relative to control; conditions: NCI-H460, 48 h, read-out: Activity
SN12C [12] = assay: Cytotoxicity against human SN12C cells assessed as cell growth at 1 uM after 48 hrs by sulforhodamine B assay relative to control; conditions: read-out: Activity
A498 [13] = assay: Cytotoxicity against human A498 cells assessed as cell growth at 0.1 uM after 48 hrs by sulforhodamine B assay relative to control; conditions: A498, 48 h, read-out: Activity
Hs-578T = assay: Cytotoxicity against human Hs 578T cells assessed as cell growth at 100 uM after 48 hrs by sulforhodamine B assay relative to control; conditions: read-out: Activity
SK-MEL-5 [14] = assay: Cytotoxicity against human SK-MEL-5 cells assessed as cell growth at 100 uM after 48 hrs by sulforhodamine B assay relative to control; conditions: SK-MEL-5, 48 h, read-out: Activity
NCI-H522 [15] = assay: Cytotoxicity against human NCI-H522 cells assessed as cell growth at 1 uM after 48 hrs by sulforhodamine B assay relative to control; conditions: NCI-H522, 48 h, read-out: Activity
U-251 = assay: Cytotoxicity against human U251 cells assessed as cell growth at 10 uM after 48 hrs by sulforhodamine B assay relative to control; conditions: U-251, 48 h, read-out: Activity
MDA-MB-435 [16] = assay: Cytotoxicity against human MDA-MB-435 cells assessed as cell growth at 0.01 uM after 48 hrs by sulforhodamine B assay relative to control; conditions: MDA-MB-435, 48 h, read-out: Activity
NCI-H226 = assay: Cytotoxicity against human NCI-H226 cells assessed as cell growth at 0.1 uM after 48 hrs by sulforhodamine B assay relative to control; conditions: NCI-H226, 48 h, read-out: Activity
LOX IMVI = assay: Cytotoxicity against human LOXIMVI cells assessed as growth inhibition after 48 hrs by sulforhodamine B assay

COc1ccc(-c2cc(/C=C/C(=O)c3ccc(N)cc3)[nH]n2)cc1OC
growth at 10 µM (SN12C [1]): 14% | growth at 10 µM (SW-620 [2]): -18% | growth at 100 µM (UACC-257 [3]): -96% | growth at 1 µM (BT-549): 80% | growth at 10 µM (UO-31): 11% | GI50 (MDA-MB-435 [4]): 2530 nM | LC50 (MDA-MB-435 [4]): 40.8 µM | TGI (MDA-MB-435 [4]): 7.23 µM | growth at 0.01 µM (RPMI-8226): 98% | growth at 100 µM (T47D): -40% | growth at 0.01 µM (DU-145): 109% | growth at 0.01 µM (SK-MEL-5 [5]): 99% | growth at 100 µM (MCF7): -58% | growth at 0.01 µM (SNB-19): 96% | growth at 10 µM (COLO 205 [6]): -79% | growth at 0.1 µM (HCT-15): 95% | growth at 0.1 µM (ACHN): 93% | growth at 0.1 µM (NCI-H322M): 102% | growth at 10 µM (NCI-H522 [7]): -84% | growth at 10 µM (HOP-62): -1% | growth at 0.1 µM (SW-620 [8]): 97% | growth at 10 µM (A498 [9]): -16% | growth at 0.01 µM (SK-OV-3): 88% | growth at 1 µM (COLO 205 [10]): 98% | growth at 1 µM (UACC-257 [11]): 96% | GI50 (IGROV-1): 4.56 µM | LC50 (IGROV-1): 73 µM | TGI (IGROV-1): 19 µM | growth at 100 µM (A549): -76% | growth at 1 µM (HCC 2998): 105% | growth at 1 µM (NCI-H460): 94% | growth at 1 µM (SN12C [12]): 93% | growth at 0.1 µM (A498 [13]): 80% | growth at 100 µM (Hs-578T): 4% | growth at 100 µM (SK-MEL-5 [14]): -94% | growth at 1 µM (NCI-H522 [15]): 87% | growth at 10 µM (U-251): -68% | growth at 0.01 µM (MDA-MB-435 [16]): 91% | growth at 0.1 µM (NCI-H226): 91% | GI50 (LOX IMVI): 1920 nM | LC50 (LOX IMVI): 7.98 µM | TGI (LOX IMVI): 3.91 µM
